*1 amine or outer side, *2 acyl side, *3 side chain or, on linkers, in order; H or OH if unused. Where a SMILES comes first, the peptide text is derived from it. The star is where a group is joined. X1 = O=C(CCCC[C@@H]1SC[C@@H]2NC(=O)N[C@@H]21)NCCCOCCOCCOCCCN*; Suc = O=C(CCC(=O)[*:2])[*:1]

The test system of assay [1] is GIPC1-1. Description: Holdup assay, GIPC1-1. The format is binding, human.
Assay [2] relates to LNX2-3. Nature of the assay: Holdup assay, LNX2-3. The format is binding, human.
Assay [3] deals with T1, LNX2-2 (Homo sapiens, UniProt Q8N448).
T1 sequence (Q8N448 339-422): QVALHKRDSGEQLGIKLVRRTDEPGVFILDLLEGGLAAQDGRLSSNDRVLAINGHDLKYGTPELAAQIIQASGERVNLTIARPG
Nature of the assay: Holdup assay, LNX2-2. Type of assay: binding.

For assay [4], the target named is T2, DLG4 PDZ 3 (Homo sapiens, UniProt P78352).
T2 construct: made in house; host or cells: E. coli
Description: Holdup assay, DLG4-3. The format is binding. As for the experimental part:
The holdup assay was performed on a Tecan freedom Evo200 robot with 384-well plates in singlicate for the three 11-mer PTEN variants and the 13-mer PTEN peptide as described in [31, 32]. Briefly, prior to interaction assay, 2.5 μL of streptavidin resin was saturated in each well with 20 μL of biotinylated PBM peptides (42 μM) and then washed twice with an excess of free biotin, while the reference resin was incubated only with biotin. Right before the holdup experiment, the PDZ library was spiked with an internal standard of lysozyme. Then, the biotin- or PBM-saturated resin was incubated, each in a distinct well of a 384-well plate, with complete cell lysates diluted so that the concentration of the tag-PDZ present in the crude extract is adjusted at 4 μM. After a sufficient time to reach complex equilibrium (15 min.), a fast and mild filtration step is performed and the tag-PDZ concentrations were measured by capillary electrophoresis instrument (LabChip GXII, PerkinElmer, Massachusets, USA). Standard markers were used to convert migration time into molecular weight on the LabChip software and inappropriate molecular weight markers were corrected or excluded.
For filtered data, the BI was extracted with the following equation (Eq 1) that estimates the depleted fraction after superimposition of the sample and reference electropherograms: BI=Iref−Ilig/Iref (1) where Iref and Ilig are the intensities of the tag-PDZ peaks measured, for each PDZ domain/PBM peptide interaction pair, in the biotin reference and the PBM electropherograms, respectively.
BIs were transformed into dissociation constants (KD) using the following formula: KD=([PDZtot]−BI·[PDZtot])·([PBMtot]−BI·[PDZtot])/BI·[PDZtot] (2) where [PDZtot] and [PBMtot] correspond to the total concentrations of the PDZ domain (usually around 4 μM) and the PBM peptide used during the assay. Since the PBMtot concentration in the resin during the holdup assay parameter may differ from one peptide to another and remains unknown, it is impossible to directly convert BI values into KD constants. We systematically determined the KD constants for a subset of PDZ/PBM pairs by competitive FP. […] For each PBM, the average peptide concentration was calculated after outlier rejection based on the absolute distances from the median as compared to three times the standard deviation (3σ rule), with never more than 2 values rejected.

Assay [5] relates to INTU-1. Nature of the assay: Holdup assay, INTU-1. The format is binding, human.
For assay [6], the target named is MAGI2-4 (Homo sapiens, UniProt Q86UL8). Description: Holdup assay, MAGI2-4. Type of assay: binding.
Assay [7] concerns the target LAP2-1 (Homo sapiens, UniProt Q96RT1). Description: Holdup assay, LAP2-1. The format is binding.
The subject of assay [8] is GRIP1-5. Description: Holdup assay, GRIP1-5. Type of assay: binding, human.
In assay [9] the test system is human PDZome. Description: Promiscuity / specificity index from PDZome affinity profile (combined holdup and FP). Type of assay: binding. The settings on record: for Nb PDZ (BI): Val for BI=0.2; for Max Log(Kd): maximum over PDZome; for 1/2PDZ: number of PDZ, 1/2PDZ Min and Max; for number of PDZ domains above the half-maximal binding affinity: relative to number of tested and validated PDZ domains. An excerpt:
Using the mean concentration obtained above for each of the different PTEN peptides, the experimental BI values recorded by holdup for all tested domain/peptide pairs were subsequently transformed into equilibrium dissociation constants. […] Thereafter, affinity data measured by FP assay were also included in the […] for the PDZ domains (MAST1-1, MAST2-1, SNX27-1, MAGI1-2 and GRID2IP-2) for which holdup data were missing according to the low quality score in the filtering step. These interaction data detected only by competitive FP and not by holdup represented 1 to 2 additional PDZ binders per PTEN construct. […] This transformation into affinity values makes then possible to compare binding affinity profiles obtained for different peptides and potentially different batches.
The above described holdup-FP strategy delivers binding affinity constants, a universal chemical property. […] We then looked for a numerical parameter that would express, in a quantitative way, this specificity or promiscuity information. For this purpose, we calculated for each profile the difference between the maximal and the minimal significant affinity values detected by the assay, ΔGmax − ΔGmin. Next, we introduced a threshold affinity, called "half-maximal binding affinity" defined as follows: ΔGhalf = ΔGmin + (ΔGmax − ΔGmin)/2. […] Alternatively, the specificity index IS could be defined as 1 –IP. Therefore, the lower the promiscuity index, the higher the specificity index, the higher the specificity of the PBM for a limited number of selected domains across the PDZome.
We probed the specificity index on the PDZome-binding profiles of the four PTEN peptides. […] This would indicate, in qualitative terms, that the PTEN_13 peptide selects PDZ domains in a more specific -less promiscuous- way than that of the three of other peptides. […] One should note that it was not possible to determine index uncertainty by error propagation starting from holdup data, since BI values have been recorded in singlicate. However, the dispersion of log(KD) values around the perfect theoretical correlation line in the correlation plot (Fig 5B) is representative of global IS uncertainty, which was therefore estimated by averaging the distances between the experimental dots and the theoretical diagonal. Details about uncertainties and Fisher’s test calculations are provided in Supp. Materials and S1 File.
Uncertainty on IS was estimated according to several steps described below:
- Since it’s not possible strictly talking to propagate uncertainty for data recorded in singlicate, we considered that log(KD) uncertainty is contained in the correlation plot [log(KD,HU) vs. log(KD,FP)] when comparing the experimental data with the perfect theoretical correlation (the dotted diagonal line).
- Originally, we estimated the 1/2 PDZ index by counting the number of PDZ with a log(KD) value above the threshold calculated with the formulae developed in the manuscript. Then we did the same type of counting for [threshold value + log(KD) uncertainty] and for [threshold value - log(KD) uncertainty].
- From the difference in the two counts is estimated the index uncertainty.
Due to the low number of PDZ occurrences, a Fisher's exact test was preferred to estimate the p-value. Calculations were performed online with http://astatsa.com using default parameters.

Assay [10] relates to CARD14-1. Nature of the assay: Holdup assay, CARD14-1. The format is binding, human.
Assay [11] concerns the target T3, ARHGEF12-1 (Homo sapiens, UniProt Q9NZN5).
T3 sequence (Q9NZN5 72-151): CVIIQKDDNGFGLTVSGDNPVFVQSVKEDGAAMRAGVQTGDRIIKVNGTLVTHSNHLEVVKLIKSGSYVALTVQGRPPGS
Nature of the assay: Holdup assay, ARHGEF12-1. The format is binding.

LAP2-1, sequence (Q96RT1 1321-1410): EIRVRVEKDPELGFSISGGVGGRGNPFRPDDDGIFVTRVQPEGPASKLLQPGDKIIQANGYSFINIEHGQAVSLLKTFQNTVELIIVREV
MAGI2-4, sequence (Q86UL8 whole entry): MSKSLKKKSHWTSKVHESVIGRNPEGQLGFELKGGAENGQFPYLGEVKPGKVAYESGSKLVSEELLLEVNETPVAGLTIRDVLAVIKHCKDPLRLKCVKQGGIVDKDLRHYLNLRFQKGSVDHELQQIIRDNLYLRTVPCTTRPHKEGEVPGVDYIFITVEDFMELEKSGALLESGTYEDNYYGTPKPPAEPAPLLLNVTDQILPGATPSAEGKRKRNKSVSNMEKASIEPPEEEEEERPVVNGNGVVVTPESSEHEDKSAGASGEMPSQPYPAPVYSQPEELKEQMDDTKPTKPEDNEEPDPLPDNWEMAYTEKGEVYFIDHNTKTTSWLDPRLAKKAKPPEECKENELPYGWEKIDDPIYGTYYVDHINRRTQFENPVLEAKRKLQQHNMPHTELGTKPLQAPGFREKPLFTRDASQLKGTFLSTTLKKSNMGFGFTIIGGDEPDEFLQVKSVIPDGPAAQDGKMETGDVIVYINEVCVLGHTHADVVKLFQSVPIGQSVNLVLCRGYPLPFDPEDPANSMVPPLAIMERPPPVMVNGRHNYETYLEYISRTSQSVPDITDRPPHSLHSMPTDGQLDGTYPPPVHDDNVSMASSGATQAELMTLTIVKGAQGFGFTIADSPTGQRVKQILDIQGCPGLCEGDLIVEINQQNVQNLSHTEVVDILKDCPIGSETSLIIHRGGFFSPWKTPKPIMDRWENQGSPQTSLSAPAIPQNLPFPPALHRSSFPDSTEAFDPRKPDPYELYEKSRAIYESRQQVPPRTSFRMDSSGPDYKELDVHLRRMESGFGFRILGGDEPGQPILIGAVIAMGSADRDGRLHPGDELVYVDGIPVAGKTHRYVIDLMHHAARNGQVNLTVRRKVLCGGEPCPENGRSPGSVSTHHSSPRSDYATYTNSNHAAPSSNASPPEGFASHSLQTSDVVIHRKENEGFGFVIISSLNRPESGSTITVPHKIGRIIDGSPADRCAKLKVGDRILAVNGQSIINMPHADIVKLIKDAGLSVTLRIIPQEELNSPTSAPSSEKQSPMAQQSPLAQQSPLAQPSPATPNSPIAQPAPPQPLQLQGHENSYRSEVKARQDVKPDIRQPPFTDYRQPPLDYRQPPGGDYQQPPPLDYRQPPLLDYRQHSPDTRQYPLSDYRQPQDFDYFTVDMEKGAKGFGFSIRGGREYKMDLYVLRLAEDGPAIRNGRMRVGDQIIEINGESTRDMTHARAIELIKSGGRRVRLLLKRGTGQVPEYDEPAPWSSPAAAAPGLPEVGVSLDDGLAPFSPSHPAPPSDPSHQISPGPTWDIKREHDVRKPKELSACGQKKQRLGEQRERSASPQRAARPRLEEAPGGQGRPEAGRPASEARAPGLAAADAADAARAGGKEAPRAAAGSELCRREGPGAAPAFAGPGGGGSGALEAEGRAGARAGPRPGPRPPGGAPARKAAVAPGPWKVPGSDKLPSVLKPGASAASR
T2 sequence (P78352 313-393 limits assumed): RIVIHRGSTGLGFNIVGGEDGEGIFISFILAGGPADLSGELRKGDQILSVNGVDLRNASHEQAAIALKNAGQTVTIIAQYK

Turning to `CC[C@H](C)[C@H](NC(=O)[C@H](CCC(N)=O)NC(=O)[C@@H](NC(=O)[C@H](Cc1c[nH]cn1)NC(=O)[C@H](CCC(N)=O)NC(=O)[C@H](CC(=O)O)NC(=O)[C@H](CCC(=O)O)NC(=O)[C@H](CC(=O)O)NC(=O)CCC(=O)NCCCOCCOCCOCCCNC(=O)CCCC[C@@H]1SC[C@@H]2NC(=O)N[C@@H]21)[C@@H](C)O)C(=O)N[C@H](C(=O)N[C@@H](CCCCN)C(=O)N[C@H](C(=O)O)C(C)C)[C@@H](C)O` [PTEN_11], the BI in [1] is given as 0.042; in assay [2], -0.164; in assay [3], -0.039; in assay [4] it was -0.018; in assay [5], -0.089; in [6], 0.06. Besides, the BI is reported as 0.305 in assay [7], 0.021 in assay [8], -0.077 in assay [10] and 0.392 in assay [11]. Moreover, the LogKD in assay [1], in assay [2], in assay [3], in [5], in assay [6] and in assay [8] was 3.519 throughout. The LogKD in assay [10] is 3.519. Moreover, the results for the dissociation constant Kd in assay [7] and in assay [11] were 74.7 µM and 50.3 µM, respectively. In assay [9], the “Nb PDZ (BI)” value worked out at 19. The “Max Log(Kd)” value in [9] came to 4.90. Also, the 1/2PDZ in [9] is listed as 9. Further, in assay [9], the “number of PDZ domains above the half-maximal binding affinity” value (from here on “number”) was found to be 9.

For the molecule `CC[C@H](C)[C@H](NC(=O)[C@H](CCC(N)=O)NC(=O)[C@@H](NC(=O)[C@H](Cc1c[nH]cn1)NC(=O)[C@H](CCC(N)=O)NC(=O)[C@H](CC(=O)O)NC(=O)[C@H](CCC(=O)O)NC(=O)[C@H](CC(=O)O)NC(=O)[C@H](Cc1ccccc1)NC(=O)[C@@H]1CCCN1C(=O)CCC(=O)NCCCOCCOCCOCCCNC(=O)CCCC[C@@H]1SC[C@@H]2NC(=O)N[C@@H]21)[C@@H](C)O)C(=O)N[C@H](C(=O)N[C@@H](CCCCN)C(=O)N[C@H](C(=O)O)C(C)C)[C@@H](C)O` [PTEN_13] ({X1-Suc}-PFDEDQHTQITKV-OH), the BI in assay [1] is reported as -0.02; in assay [2] it was -0.083; in [3], 0.136; in [4], -0.097; in assay [5], -0.039; in assay [6] it was -0.036. Moreover, the BI in [7] is 0.172; in assay [8] it was -0.033; in assay [10], -0.001; in assay [11], 0.169. The LogKD in assay [6] is 3.826. For the same molecule, the “Nb PDZ (BI)” value in [9] stood at 25. The “specificity (in words)” value in assay [9] (compared with the three 11-mer peptides) is reported as “slight increased specificity”. Also, the “Max Log(Kd)” value in assay [9] turned out to be 5.89. Moreover, in assay [9], the 1/2PDZ turned out to be 4. Also, the “number” value in assay [9] was 4.

With `CC[C@H](C)[C@H](NC(=O)[C@H](CCC(N)=O)NC(=O)[C@@H](NC(=O)[C@H](Cc1c[nH]cn1)NC(=O)[C@H](CCC(N)=O)NC(=O)[C@H](CC(=O)O)NC(=O)[C@H](CCC(=O)O)NC(=O)[C@H](CC(=O)O)NC(=O)CCC(=O)NCCCOCCOCCOCCCNC(=O)CCCC[C@@H]1SC[C@@H]2NC(=O)N[C@@H]21)[C@@H](C)O)C(=O)N[C@H](C(=O)N[C@@H](CCCCNC(C)=O)C(=O)N[C@H](C(=O)O)C(C)C)[C@@H](C)O` [PTEN_Ac], the BI was 0.035 in assay [1]; 0.68 in assay [3]; -0.024 in assay [4]; 0.042 in assay [5]; 0.1 in assay [6]; 0.214 in assay [7]. Moreover, the values for the BI in assay [8] and in [11] were -0.054 and 0.535, respectively. Further, the LogKD in assay [1], in assay [5], in [6] and in [8] was 3.605 throughout. Besides, the Kd in assay [3] is 11.9 µM; in assay [7], 99.7 µM; in [11] it was 22.5 µM. Also, the “Nb PDZ (BI)” value in assay [9] is recorded as 43. Besides, in assay [9], the 1/2PDZ is 12. The “number” value in assay [9] turned out to be 12.

Turning to `CC[C@H](C)[C@H](NC(=O)[C@H](CCC(N)=O)NC(=O)[C@@H](NC(=O)[C@H](Cc1c[nH]cn1)NC(=O)[C@H](CCC(N)=O)NC(=O)[C@H](CC(=O)O)NC(=O)[C@H](CCC(=O)O)NC(=O)[C@H](CC(=O)O)NC(=O)CCC(=O)NCCCOCCOCCOCCCNC(=O)CCCC[C@@H]1SC[C@@H]2NC(=O)N[C@@H]21)[C@@H](C)O)C(=O)N[C@H](C(=O)N[C@@H](CCCNC(=N)N)C(=O)N[C@H](C(=O)O)C(C)C)[C@@H](C)O` [PTEN_KR] ({X1-Suc}-DEDQHTQITRV-OH), the BI is 0.02 in assay [1]; 0.021 in [2]; 0.256 in assay [3]; 0.043 in assay [4]; -0.043 in assay [5]; 0.116 in assay [6]. Also, the BI in [7] was 0.205; in assay [8] it was 0.003; in assay [10], -0.077; in assay [11], 0.433. The LogKD in assay [1], in [2], in [5], in assay [8] and in assay [10] was 3.655 in each case. The results for the Kd in assay [3], in assay [7] and in assay [11] were 69.7 µM, 93.8 µM and 30.5 µM, respectively. In addition, the “Nb PDZ (BI)” value in assay [9] stood at 38. Moreover, the 1/2PDZ in assay [9] turned out to be 9. The “number” value in assay [9] is listed as 9.

Broadly, the Kd is the free concentration of one partner at which half of the binding sites on the other are occupied at equilibrium, for simple one-to-one binding.
